Measurements: patent publication US5191073A, “Chromogenic merocyanine enzyme substrates” (priority 1992, dated 1993)

How the values were obtained:
[1] = Study of Chromogenic Substrate Properties: absorbance maxima, shift, extinction coefficient (Table D); format: physicochemical; conditions: for λ max Chromogen / λ max Substrate: colour in words where no value; for λ max Shift: shift from substrate to chromogen; for ε × 10^3 Substrate / ε × 10^3 Chromogen: values are ε × 10^3
[2] = Study of Chromogenic Substrate Properties: pKa (Table D); format: physicochemical
β-galactosidase [3] = test: Study of Chromogenic Substrate Properties: enzyme turnover, Km and Kcat (Table D); format: biochemical
β-galactosidase [4] = test: colour change of reaction mixture or extract on treatment with β-galactosidase; format: biochemical
Procedure: 3-Ethyl-2-(4'-β-D-galactopyranosyloxynaphthyl-1'-vinylene)-benzothiazolium iodide (20)--Approximately equal amounts of 4-(β-D-galactopyranosyloxy) -1-naphthaldehyde (5) and 2-methylbenzothiazole ethiodide (8) (H. Richter & R. L. Dresser, supra) were heated at reflux for about 1 minute in ethanol containing a small amount of piperidine. The initially colorless mixture became red-orange during this time. The presence of (20) in the reaction mixture was determined by mixing a portion of the reaction mixture with an equal amount of dimethylformamide, diluting this with 0.1M phosphate buffer pH=7.0, and then treating the resulting solution with β-galactosidase.
3-Ethyl-2-(6'-β-D-galactopyranosyloxynaphthyl-2'-vinylene)-benzoselenazolium iodide (24)--A mixture of 6-(β-D-galactopyranosyloxy)-2-naphthaldehyde (6) (34 mg, 0.1 mmole), 2-methylbenzoselenazole ethiodide (12) (H. Richter & R. L. Dresser, supra) (35 mg, 0.1 mmole) and 0.5 mL of anhydrous pyridine was heated in a 70° C. oil bath for 20 hours.
1-Ethyl-4-(4'-β-D-galactopyranosyloxynaphthyl-1'-vinylene)-quinoliniumiodide (29)--A mixture of 4-(β-D-galactopyranosyloxy)-naphthaldehyde (5) (34 mg, 0.1 mmole), lepidine ethiodide (28) (H. Richter & R. L. Dresser, supra) (30 mg, 0.1 mmole) and 0.5 mL of anhydrous pyridine was heated in a 70° C. oil bath for 3 hours. Then an additional of 60 mg of lepidine ethiodide (28), was added and the reaction mixture was allowed to react in the 70° C. oil bath for a total of 20 hours.

SMILES | λ max Chromogen [1] | λ max Shift [1] | λ max Substrate [1] | ε × 10^3 Substrate [1] | pKa [2] | Kcat (β-galactosidase [3]) | Km (β-galactosidase [3]) [µM] | ε × 10^3 Chromogen [1] | colour change on addition of β-galactosidase (β-galactosidase [4]; dimethylformamide diluted with 0.1M phosphate buffer pH=7.0) | colour change on addition of β-galactosidase (β-galactosidase [4]; 0.3M bicene buffer (pH 7.9), β-galactosidase and a drop of 1N NaOH) | colour change on addition of β-galactosidase (β-galactosidase [4]; 50 mM phosphate buffer (pH 7.4)) | time to colour change on addition of β-galactosidase (β-galactosidase [4]; 50 mM phosphate buffer (pH 7.4), yellow to blue) [s]
CC[N+]1=C(C=Cc2ccc3cc(O[C@@H]4O[C@H](CO)[C@H](O)[C@H](O)[C@H]4O)ccc3c2)C(C)(C)c2ccccc21 [Compound 18, 1-Ethyl-2-(6'-β-D-galactopyranosyloxynaphthyl-2'-vinylene)-3,3-dimethylindolenium iodide] | 530 | 100 | 430 | 32.2 | 8.3 | 1.3 × 10^4 mole/min per mole active site | 80 | – | – | – | – | –
CC[N+]1=C(C=Cc2ccc(O[C@@H]3O[C@H](CO)[C@H](O)[C@H](O)[C@H]3O)cc2)C(C)(C)c2ccccc21 [Compound 16, 1-Ethyl-2-(4'-β-D-galactopyranosyloxystyryl)-3,3-dimethylindolenium iodide] | 522 | 116 | 406 | 25.3 | 7.3 | 1.43 × 10^3 mole/min per mole active site | 18 | 45.0 | – | – | – | –
C[n+]1c(/C=C/c2ccc(O[C@@H]3O[C@H](CO)[C@H](O)[C@H](O)[C@H]3O)c3ccccc23)sc2ccc3ccccc3c21 [Compound 22, 2-(4'-β-D-galactopyranosyloxynaphthyl-1'-vinylene)-3-methyl-β-naphthothiazolium iodide] | 610 | 140 | 470 | – | 7 | – | – | – | – | – | – | –
CC[N+]1=C(C=Cc2ccc(O[C@@H]3O[C@H](CO)[C@H](O)[C@H](O)[C@H]3O)c3ccccc23)C(C)(C)c2ccccc21 [Compound 17, 1-Ethyl-2-(4'-β-D-galactopyranosyloxynaphthyl-1-vinylene)-3,3-dimethylindolinium iodide] | 580 | 124 | 456 | 28.0 | 6 | 7.8 × 10^3 mole/min per mole active site | 90 | 82.0 | – | – | – | –
CC[n+]1c(C=Cc2ccc(O[C@@H]3O[C@H](CO)[C@H](O)[C@H](O)[C@H]3O)c3ccccc23)sc2ccccc21 [Compound 20, 3-Ethyl-2-(4'-β-D-galactopyranosyloxynaphthyl-1'-vinylene)-benzothiazolium iodide] | violet | – | yellow | – | – | – | – | – | turned from yellow in color to violet | – | – | –
CC[n+]1c(C=Cc2ccc(O[C@@H]3O[C@H](CO)[C@H](O)[C@H](O)[C@H]3O)c3ccccc23)sc2ccc(C)cc21 [Compound 23, 3-Ethyl-2-(4'-β-D-galactopyranosyloxynaphthyl-1'-vinylene)-5-methylbenzothiazolium iodide] | blue | – | yellow | – | – | – | – | – | – | – | – | –
CC[n+]1c(C=Cc2ccc3cc(O[C@@H]4O[C@H](CO)[C@H](O)[C@H](O)[C@H]4O)ccc3c2)[se]c2ccccc21 [Compound 24, 3-Ethyl-2-(6'-β-D-galactopyranosyloxynaphthyl-2'-vinylene)-benzoselenazolium iodide] | purple | – | yellow | – | – | – | – | – | – | turned to purple immediately | – | –
CC[n+]1c(C=Cc2ccc(O[C@@H]3O[C@H](CO)[C@H](O)[C@H](O)[C@H]3O)c3ccccc23)ccc2ccccc21 [Compound 26, 1-Ethyl-2-(4'-β-D-galactopyranosyloxynaphthyl-1'-vinylene)-quinoliniumiodide] | 606 | 172 | 434 | 16.0 | 6.5 | – | – | 70.2 | – | – | – | –
CC[n+]1c(C=Cc2ccc(O[C@@H]3O[C@H](CO)[C@H](O)[C@H](O)[C@H]3O)cc2)sc2ccccc21.[Cl-] [Compound 19, 3-Ethyl-2-(4'-β-D-galactopyranosyloxystyryl) benzothiazolium chloride] | 492 | 99 | 393 | – | 7.6 | 3.04 × 10^3 mole/min per mole active site | 17 | 43.0 | – | – | – | –
Cc1ccc2oc(C=Cc3ccc(O[C@@H]4O[C@H](CO)[C@H](O)[C@H](O)[C@H]4O)c4ccccc34)[n+](CCC(=O)O)c2c1 [Compound 25, 3-(2"-Carboxyethyl)-2-(4'-β-D-galactopyranosyloxynaphthyl-1'-vinylene)-5-methyl benzoxazolium bromide] | 550 | 130 | 420 | 15.8 | 6.6 | 9.8 × 10^2 mole/min per mole active site | 80 | 50.1 | – | – | – | –
CC[n+]1ccc(C=Cc2ccc(O[C@@H]3O[C@H](CO)[C@H](O)[C@H](O)[C@H]3O)c3ccccc23)c2ccccc21 [Compound 29, 1-Ethyl-4-(4'-β-D-galactopyranosyloxynaphthyl-1'-vinylene)-quinoliniumiodide] | blue | – | yellow | – | – | – | – | – | – | – | yellow solution turned to blue color | ≤ 5
CC[n+]1c(C=Cc2ccc(O[C@@H]3O[C@H](CO)[C@H](O)[C@H](O)[C@H]3O)c3ccccc23)sc2cc(OC)ccc21 [Compound 21, 3-Ethyl-2-(4'-β-D-galactopyranosyloxynaphthyl-1'-vinylene)-6-methoxybenzothiazolium iodide] | 598 | 176 | 422 | 10.5 | 6.6 | 2.8 × 10^3 mole/min per mole active site | 430 | 80.1 | – | – | – | –
